Series [1] can be described thus: in vitro. To be noted: pH 7.4. As to the method:
The reactions were terminated by the addition of four volumes of ice-cold methanol, mixed vigorously, and left at −20 °C for 1h. After that, the samples were centrifuged and the supernatants were analysed by means of ECHO-MS® System (Sciex, Framingham, MA, USA). Zero time points were prepared by adding ice-cold methanol to the mixture of the compound with cofactors before the addition of microsomes. […] Intrinsic clearance (CLint) was calculated using the following formula: [drawing 4] where V is the incubation volume per milligram of microsomal protein (µL mg^−1) and t1/2 is the microsomal half-life.

Series [2] can be described thus: Thermodynamic solubility in PBS pH 7.4. To be noted: PBS pH 7.4, 20 °C, 24 h. The series is classed as physicochemical. The method, then: The reference samples were prepared as follows: a weight corresponding to 2.5 µmol was dissolved in 250 µL of DMSO, resulting in a concentration of 10 mM stock solution. Each calibration level standard was prepared by diluting the stock solution in a mixture of PBS and acetonitrile (50 : 50 v/v). The samples for testing were prepared as follows: the volume of 1000 µL of PBS was added to the testing tube containing a weight of sample corresponding to 0.4 mM. The mixture was shaken at 1000 rpm at 20 °C for 24 h. The mixture was then filtered using a syringe polypropylene 0.45 µm filter. Samples and calibration standards are prepared using an automated system of a robotic arm (PAL-RTC, Switzerland). Then, the sample was analysed on chromatographic system (Vanquish UHPLC, Thermo Fisher Scientific, Germany) connected to the diode array detector and consequently to the charged aerosol detector (both Vanquish, Thermo Fisher Scientific, Germany), Thermo Scientific Accucore C8 (100 × 3 mm; 2.6 µm) column, using gradient elution with acetonitrile/methanol/5 mM formate buffer (pH = 3.00); flow: 1.0 cm^3 min^−1; column temperature: 40 °C; CAD temperature: 30 °C; sample volume: 5 mm^3.

Series [3] is described as follows: Stability in rat plasma. Format: in vitro ADME. Particulars: rat plasma, 37 °C. The method, then:
Compounds were prepared as 1.6 mg mL^−1 stock solutions in methanol. Then, 20 µL of stock solution was added to 1000 µL of rat plasma (BioIVT, Cat. No. RAT00PLLH-0102307), maintained at 37 °C. Aliquots (50 µL) withdrawn at 0, 8, and 24 h were analyzed by HPLC. An aliquot of plasma was extracted with methanol (450 µL) containing an internal standard, and the solution was vortexed (20 s) and centrifuged at 13 500 rpm for 10 min. The supernatant was transferred to an autosampler vial, and 10 µL was injected into an LC-MS system. The samples were analyzed using an Agilent 6230 TOF LC/MS. Samples were separated on a Waters ACQUITY UPLC CSH Phenyl-Hexyl column (100 × 2.1, 130 Å, 1.7 µm) at a flow rate of 0.3 mL min^−1. […]. The temperature, the flow rate of the nitrogen drying gas, the pressure of the nitrogen nebulizing gas, and the flow rate of the sheath gas were set at 325 °C, 10 L min^−1, 40 psi, […], and 11 L min^−1, respectively. Results are represented as a percentage of the compound remaining in spiked plasma.

Series [4] can be described thus: Stability in primary rat hepatocytes. The method, then:
Primary rat hepatocytes were isolated from 12-weeks-old male Wistar rats (n = 3) by two-step collagenase liver perfusion. Tribromoethanol was used as an anesthetic agent at a dose of 250 mg kg^−1. […] Flow rate was maintained at 7 mL min^−1, and all solutions were kept at 37 °C. After in situ perfusion, the liver was excised, the liver capsule was opened, and cells were suspended in William's Medium E and filtered through a 70 µm membrane. Dead cells were removed by Percoll centrifugation (Percoll density: 1.06 g mL^−1, 50×g, 10 min, 20 °C) and additional centrifugation in William's Medium E (50×g, 5 min). Cells were subsequently diluted in William's Medium E, and their viability and cell suspension density were determined by Trypan Blue exclusion using a hemocytometer. […] Aliquots (50 µL) of the hepatocyte suspension were added to each test well of a 96-well plate, immediately followed by the addition of a 50 µL aliquot of the test compound or control solutions (final hepatocyte density – 0.5 × 10^6 mL^−1). […] At appropriate time-points, 40 µL aliquots were removed from the wells and placed in 1.1 mL microtubes containing 200 µL of methanol and used for LC-MS/MS analysis.
Elimination constant (kel), half-life (t1/2), and intrinsic clearance (CLint) were determined in plots of ln (percent remaining of parent compound) versus time, using linear regression analysis: k = −slope [drawing 6] [drawing 7]

Series [5] in a line: in vitro. Particulars: pH 7.4. As to the method:
Permeability was quantified using permeability coefficients (Pe) and mass retention, the latter representing the proportion of compound retained in the membrane.
Permeation experiments were conducted in polystyrene 96-well filter plates with PVDF membrane pre-coated with structured layers of phospholipids (Corning Gentest™) according to the manufacturer's instructions. Briefly, the plate was warmed to room temperature, and meanwhile, the solutions of the compounds were diluted from 10 mM DMSO stocks to TRIS–HCl buffer pH 7.4 to reach a 100 µM final concentration. The DMSO concentration in the samples was 1%. Then, 300 µL of these solutions were transferred into the donor (receiver) plate wells, and 200 µL of the (TRIS) buffer was added to the acceptor (filter) plate wells. The filter plate and receiver plate were assembled and incubated for 5 h on an orbital shaker (300 rpm). After this, the concentration of the tested substances in both the donor and acceptor compartments was determined with use of LC/MS. Liquid chromatography was performed using an ExionLC AD pump and autosampler from Sciex (Framingham, MA, USA). […] The mobile phase flow rate was 300 µL min^−1. The column Synergi Fusion-RP from Phenomenex (Torrance, CA, USA) was used and was kept at 40 °C during the analysis.
This is another data set of the same source.

Experimental findings from PMC12930396, “Positive modulators of N-methyl-D-aspartate receptor: structure–activity relationship study on steroidal C-17 and C-20 oxime ethers” (RSC Advances, 2026) are described below.

The half-life is how long it takes for the measured level to halve. Lower therefore signals fast loss. As a reminder, the thermodynamic solubility is the concentration in solution at equilibrium with solid. By Papp is commonly meant the rate of passage across a membrane or cell layer, normalised by area and donor concentration.

Each structure is given as a SMILES string. Where “and” joins values, the source holds several entries; their conditions need not be identical. Equal values may be shown once.

On to `CCON=C(C)C1CCC2C3CC=C4CC(OC(=O)CCCC(=O)O)CCC4(C)C3CCC12C` (stereo not drawn) [Compound 12, 20-Oxo-pregn-5-en-3β-yl hemiglutarate O-ethyloxime], for which the “Metabolic stability in rat liver microsomes” value in series [1] (1 h, 10 µM) was “no detectable metabolism after 60 min”. The molecule also returned a half-life at 10 µM in series [1] (rat, microsomes) above 1 h. Moreover, the “Solubility PBS, pH 7.4 (thermodynamic)” value in series [2] is 361 ± 41 µM. Also, the thermodynamic solubility at 24 h in series [2] (PBS, 20 °C, pH 7.4, aqueous buffer, thermodynamic from solid, read-out: Solubility PBS, pH 7.4 (thermodynamic)) is above 350 µM. Further, the “Stability in rat plasma (% remaining) 8 h” value in series [3] (8 h) was 85.6 ± 1.0 % remaining and 86 ± 1 % remaining. Moreover, the “Stability in rat plasma (% remaining) 24 h” value in series [3] (24 h) was 59.6 ± 0.7 % remaining and 60 ± 1 % remaining. In series [4] (3 µM, 0.5 × 10^6 cells mL^−1), the “Stability in primary rat hepatocytes Clint” value stood at 19.1 µL/min/mg. The half-life at 3 µM in series [4] (male, Wistar, rat, hepatocytes) was determined as 1.21 h. Further, the “Metabolic stability in rat hepatocytes” value in series [4] (rat, hepatocytes) was “moderate metabolic stability”. Besides, in series [5] (5 h, 100 µM), the “PAMPA permeability Retention (mass retention)” value came to 97%. Also, the apparent permeability coefficient (Papp) at 5 h, 100 µM in series [5] (PAMPA) is 3.89 ×10⁻⁶ cm/s.
